Columns and labels:
[1] = test system: MEF; assay: Filopodia formation in MEF (F-actin staining, cells with at least 5 filopodia scored positive); type: cell-based, mouse; details: pretreated for 10 hours (TNFα 100 ng.ml^−1, adriamycin 5 μg.ml^−1, etoposide 25 μg.ml^−1), followed by 12 minutes bradykinin; bradykinin alone 62%
Text: (§1) Human wild type p53 cDNA or its mutated forms, H175 and H273 were cloned into the BamH1 site of pCDNA3 vector (Invitrogen), then transferred in pEGFPC1 (Clontech) to give GFP-tagged proteins. Constructs expressing MYC epitope-tagged mutant Rac1, Cdc42 and RhoA proteins and their various mutants were kindly provided by P. Chavrier (Dutartre et al., 1996). The GFP fusion proteins were cloned in the pEGFP-C1 vector (Gauthier-Rouviere et al., 1998), (Ory et al., 2000), (Roux et al., 1997). The pcDNA3myc-NWASP containing the Cdc42-interacting domain of WASP was previously described in (Philips et al., 2000). The pGL2B-mdm2 plasmid in which the reporter gene luciferase is controlled by the p53-responsive element of mdm2 (Barak et al., 1994) was a kind gift of E. Yonish-Rouach. pTKRL plasmid was from Promega. TNFα, adriamycin and etoposide (Sigma) were used in all experiments at the concentration of 100 ng.ml^−1, 5 μg.ml^−1 and 25 μg.ml^−1, respectively.
(§2) Cdc42-dependent filopodia formation was induced by bradykinin (Kozma et al., 1995; Nobes and Hall, 1995a). p53 was activated either by Tumor Necrosis Factor-a (TNFa), or using two cytotoxic drugs adriamycin and etoposide, previously shown to induce accumulation of p53 in MEF (Klefstrom et al., 1997; Lowe et al., 1993).

[2] = test system: p53-responsive element of mdm2; assay: p53 transactivation assay (dual-luciferase, mdm2 promoter reporter) in MEF; type: cell-based, mouse; details: MEF treated for 10 hours, TNFα 100 ng.ml^−1, adriamycin 5 μg.ml^−1, etoposide 25 μg.ml^−1; for activation of the p53-responsive element (luciferase activity): luciferase assayed 24 hours after transfection
Description: A: MEF were transfected with the firefly luciferase gene under the control of the mdm2 promoter and treated for 10 hours either with TNFa adriamycin, or etoposide. The luciferase activity was assayed 24 hours after transfection. The p53 responsive element construct was transfected in combination with either p53wt, as a positive control, or with the dominant negative mutants p53-H273 or p53-H175. The luciferase activity was assayed 24 hours later. The results are shown as mean+/−S.D. of four measurements.
as §1
p53 transactivation was measured using the dual-luciferase assay system from Promega. Cells (5×10^4) were seeded onto twelve-well plates and transfected 18 hours later in OptiMEM containing 0.440 μg of DNA (0.2 μg of appropriate GTPase plasmids, 0.2 μg of pGL2B-mdm2-luciferase plasmid and 0.04 μg of pTKRL plasmid) using 0.33 μl of Lipofectamine (Gibco-BRL) for 4 h. Cells were then left for 24 h in DMEM supplemented with 10% FCS, harvested in […] of Passive Lysis Buffer (PLB, Promega), and luciferase activity was measured following the Dual-luciferase™ Reporter Assay Protocol as recommended by Promega, using a luminometer fitted with two injectors (Berthold).
as §2, with “1993). […] Finally, we monitored the effect of p53 upregulation by TNFα, etoposide and adriamycin on Cdc42-dependent filopodia formation by bradykinin.” for “1993).”

| Compound | MEF having filopodia (bradykinin-mediated filopodia formation after pretreatment) [1] | activation of the p53-responsive element as % of the value obtained with the positive control (p53 wt) [2] | activation of the p53-responsive element (luciferase activity) [2] |
| --- | --- | --- | --- |
| COc1cc([C@@H]2c3cc4c(cc3[C@@H](O[C@@H]3O[C@@H]5CO[C@@H](C)O[C@H]5[C@H](O)[C@H]3O)[C@H]3COC(=O)[C@H]23)OCO4)cc(OC)c1O [etoposide] | 20% | 30% | twenty four-fold |
| COc1cccc2c1C(=O)c1c(O)c3c(c(O)c1C2=O)C[C@@](O)(C(=O)CO)C[C@@H]3O[C@H]1C[C@H](N)[C@H](O)[C@H](C)O1 [adriamycin] | 16% | 23% | nineteen-fold |
| Tumor Necrosis Factor-a [TNFα] | 28% | 36% | twenty eight-fold |

From patent publication US20060127957A1, “Novel biologicalcancer marker and methods for determining the cancerous or non-cancerous phenotype of cells” (priority 2002, published 2006)
